Assay results as given in PMC7933434, “Entropy-driven binding of gut bacterial β-glucuronidase inhibitors ameliorates irinotecan-induced toxicity” (Communications Biology, 2021).
“And” between values parts separate entries of the source, which are not always exact repeats. Equal values may be shown once.

Biological target: T1, HsGUS (human GUS) (Homo sapiens, UniProt P08236)
T1 construct: HsGUS was prepared as described[37]; made in house
T1 sequence (P08236 23-651): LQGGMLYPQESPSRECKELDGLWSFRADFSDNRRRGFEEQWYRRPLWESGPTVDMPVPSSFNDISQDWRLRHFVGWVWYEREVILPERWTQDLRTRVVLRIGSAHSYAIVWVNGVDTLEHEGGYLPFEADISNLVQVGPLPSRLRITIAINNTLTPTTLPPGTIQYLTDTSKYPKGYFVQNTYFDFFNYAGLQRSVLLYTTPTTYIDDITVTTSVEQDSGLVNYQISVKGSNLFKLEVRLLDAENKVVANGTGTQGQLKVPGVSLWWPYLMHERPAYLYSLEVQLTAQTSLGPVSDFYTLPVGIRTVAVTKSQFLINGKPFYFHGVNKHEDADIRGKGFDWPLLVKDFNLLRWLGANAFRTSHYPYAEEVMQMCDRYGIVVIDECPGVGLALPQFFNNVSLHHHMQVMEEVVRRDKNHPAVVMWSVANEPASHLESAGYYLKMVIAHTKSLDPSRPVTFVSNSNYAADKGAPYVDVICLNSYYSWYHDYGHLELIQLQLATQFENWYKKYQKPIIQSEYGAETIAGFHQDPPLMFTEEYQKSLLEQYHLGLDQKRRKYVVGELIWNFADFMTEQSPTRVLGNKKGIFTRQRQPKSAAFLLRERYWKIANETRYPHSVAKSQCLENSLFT
Assay: GUS inhibition assay, hydrolysis of 4-methylumbelliferyl-β-glucuronide, HsGUS
Type: biochemical
Set-up: GUS activity (hydrolysis rate of MUG): unit not given here

SMILES: CCCCCCCCC[C@@H]1NC[C@@H](O)[C@H](O)[C@H]1C(=O)O [Inhibitor 4, C6-nonyl UIFG]
- Ki (HsGUS, 50 mM sodium acetate pH 4.5, 37 °C): 105 µM
- GUS activity (hydrolysis rate of MUG) ([Inhibitor 4] =32 μM, [MUG] 0.1 mM): 862.058 and 811.68
- GUS activity (hydrolysis rate of MUG) ([Inhibitor 4] =32 μM, [MUG] 0.2 mM): 1454.23 and 1423.51
- GUS activity (hydrolysis rate of MUG) ([Inhibitor 4] =32 μM, [MUG] 0.4 mM): 2392.78 and 2276.09
- GUS activity (hydrolysis rate of MUG) ([Inhibitor 4] =32 μM, [MUG] 0.6 mM): 3009.56 and 2960.24
- GUS activity (hydrolysis rate of MUG) ([Inhibitor 4] =32 μM, [MUG] 0.8 mM): 3491.23 and 3336.67
- GUS activity (hydrolysis rate of MUG) ([Inhibitor 4] =32 μM, [MUG] 1.2 mM): 3870.44 and 4183.78
- GUS activity (hydrolysis rate of MUG) ([Inhibitor 4] =32 μM, [MUG] 1.6 mM): 4158.21 and 4615.97
- GUS activity (hydrolysis rate of MUG) ([Inhibitor 4] =32 μM, [MUG] 2 mM): 4779.14 and 4997.44
- GUS activity (hydrolysis rate of MUG) ([Inhibitor 4] =67 μM, [MUG] 0.1 mM): 714.053 and 717.679
- GUS activity (hydrolysis rate of MUG) ([Inhibitor 4] =67 μM, [MUG] 0.2 mM): 1251.96 and 1238.2
- GUS activity (hydrolysis rate of MUG) ([Inhibitor 4] =67 μM, [MUG] 0.4 mM): 2074.49 and 2003.18
- GUS activity (hydrolysis rate of MUG) ([Inhibitor 4] =67 μM, [MUG] 0.6 mM): 2680.12 and 2744.95
- GUS activity (hydrolysis rate of MUG) ([Inhibitor 4] =67 μM, [MUG] 0.8 mM): 3069.97 and 3096.82
- GUS activity (hydrolysis rate of MUG) ([Inhibitor 4] =67 μM, [MUG] 1.2 mM): 3696.42 and 3579.45
- GUS activity (hydrolysis rate of MUG) ([Inhibitor 4] =67 μM, [MUG] 1.6 mM): 4205.98 and 4285.65
- GUS activity (hydrolysis rate of MUG) ([Inhibitor 4] =67 μM, [MUG] 2 mM): 4703.3 and 4573.62
- GUS activity (hydrolysis rate of MUG) ([Inhibitor 4] =132 μM, [MUG] 0.1 mM): 517.307 and 519.469
- GUS activity (hydrolysis rate of MUG) ([Inhibitor 4] =132 μM, [MUG] 0.2 mM): 900.965 and 901.806
- GUS activity (hydrolysis rate of MUG) ([Inhibitor 4] =132 μM, [MUG] 0.4 mM): 1492.38 and 1537.56
- GUS activity (hydrolysis rate of MUG) ([Inhibitor 4] =132 μM, [MUG] 0.6 mM): 1976.12 and 2037.84
- GUS activity (hydrolysis rate of MUG) ([Inhibitor 4] =132 μM, [MUG] 0.8 mM): 2410.12 and 2475.98
- GUS activity (hydrolysis rate of MUG) ([Inhibitor 4] =132 μM, [MUG] 1.2 mM): 2927.86 and 2924.04
- GUS activity (hydrolysis rate of MUG) ([Inhibitor 4] =132 μM, [MUG] 1.6 mM): 3406.61 and 3409.83
- GUS activity (hydrolysis rate of MUG) ([Inhibitor 4] =132 μM, [MUG] 2 mM): 3959.47 and 3855.66
- GUS activity (hydrolysis rate of MUG) ([Inhibitor 4] =180 μM, [MUG] 0.1 mM): 375.667 and 389.113
- GUS activity (hydrolysis rate of MUG) ([Inhibitor 4] =180 μM, [MUG] 0.2 mM): 647.66 and 642.675
- GUS activity (hydrolysis rate of MUG) ([Inhibitor 4] =180 μM, [MUG] 0.4 mM): 1075.66 and 1190.92
- GUS activity (hydrolysis rate of MUG) ([Inhibitor 4] =180 μM, [MUG] 0.6 mM): 1564.63 and 1648.7
- GUS activity (hydrolysis rate of MUG) ([Inhibitor 4] =180 μM, [MUG] 0.8 mM): 1885.35 and 1934.39
- GUS activity (hydrolysis rate of MUG) ([Inhibitor 4] =180 μM, [MUG] 1.2 mM): 2412.5 and 2422.72
- GUS activity (hydrolysis rate of MUG) ([Inhibitor 4] =180 μM, [MUG] 1.6 mM): 2821.07 and 2863.56
- GUS activity (hydrolysis rate of MUG) ([Inhibitor 4] =180 μM, [MUG] 2 mM): 3316.38 and 3309.46
- GUS activity (hydrolysis rate of MUG) ([Inhibitor 4] =262 μM, [MUG] 0.1 mM): 312.332 and 326.592
- GUS activity (hydrolysis rate of MUG) ([Inhibitor 4] =262 μM, [MUG] 0.2 mM): 574.208 and 582.829
- GUS activity (hydrolysis rate of MUG) ([Inhibitor 4] =262 μM, [MUG] 0.4 mM): 1016.99 and 1025.39
- GUS activity (hydrolysis rate of MUG) ([Inhibitor 4] =262 μM, [MUG] 0.6 mM): 1397.45 and 1434.43
- GUS activity (hydrolysis rate of MUG) ([Inhibitor 4] =262 μM, [MUG] 0.8 mM): 1699 and 1721.63
- GUS activity (hydrolysis rate of MUG) ([Inhibitor 4] =262 μM, [MUG] 1.2 mM): 2236.3 and 2225.05
- GUS activity (hydrolysis rate of MUG) ([Inhibitor 4] =262 μM, [MUG] 1.6 mM): 2654.14 and 2619.41
- GUS activity (hydrolysis rate of MUG) ([Inhibitor 4] =262 μM, [MUG] 2 mM): 3001.13 and 3042.83
